{"source": "patent US6551812B1", "about": "“Compositions and methods relating to the peroxisomal proliferator activated receptor-α mediated pathway” (CuraGen Corporation, priority 1998, dated 2003)", "key": {"CYP2B1 [1]": {"tested_on": "CYP2B1", "details": "rat hepatocytes; cited from earlier work"}, "[2]": {"tested_on": "genes responsive to PPARαL treatment in rat liver", "assay": "GENECALLING differential gene expression analysis of liver from rats treated with PPARα ligand GW9578 vs vehicle control", "type": "in vivo", "method": "The present invention is based in part on the discovery of changes in expression patterns of multiple nucleic acid sequences, including sequences encoding known genes as well as heretofore undescribed nucleic acid sequences, in rodent liver cells following exposure to a ligand for a PPARα. The differences in gene expression were identified following administration of 1.5 mg/kg/day of a PPARα-specific ligand named GW9578. This compound is described in Brown et al., J. Med. Chem.42:3785-8, 1999, whose contents are incorporated herein in their entirety.\nGW9578 was administered to male 10-14 week old Sprague Dawley rats in b.i.d. dosing for 3 days. The animals were sacrificed 24 hours following the last dose, and liver tissue was analysis using the GENECALLING® sequence identification methods described U.S. Pat. No. 5,871,697. The contents of this application are incorporated herein by reference in their entirety.\nThe GENECALLING® sequence identification method is performed by digesting a cDNA with a pair of restriction endonucleases. The digested fragments are differentially tagged at both the 3- and 5′-termini, and amplified via polymerase chain reaction (PCR) with a fluorescent label that is detected upon subsequent electrophoresis. In the studies with PPARα ligand GW9578, a total of 48 different reactions were performed, each with a unique pair of restriction enzymes. […] This number represents a non-redundant coverage of approximately 85% of the total number of hepatic genes.\nThe hepatic response to treatment with the PPARαL compound was determined by comparing in triplicate the relative abundance of each of the 8973 gene fragments in the PPARαL-treated vs. the PPARα-untreated rodents. Comparison was performed using commercially available GENESCAPE® expression analysis software. PPARαL administration detectably altered the expression of 218 of the 8973 (2.4%) hepatic genes fragments by greater than 1.5-fold. […] Novel genes, corresponding to fragments with no match within the database, were subsequently isolated and sequenced (FIG. 4). […] There was an excellent correlation between the expression analysis results derived by the GENECALLING® sequence identification methods in comparison with those results previously obtained by the use of reverse transcriptase-based PCR (“RT-PCR”) (See FIG. 3).\nHarlan Sprague Dawley rats 10-14 weeks old were treated with oral tablet doses of: (i) PPARαL in an n-methylglucamine carrier twice daily (b.i.d) for a total of 3 days (3 rats total) or (ii) PPARαL in an n-methylglucamine carrier twice daily (b.i.d.) for a total of 3 days (3 rats total) or (iii) the n-methylglucamine carrier alone twice daily (b.i.d.) for a total of 3 days (3 rats total). On the fourth day, approximately 12 hours following the last dose of drug the animals were sacrificed. Liver and adipose tissue were harvested from all animals and snap frozen in liquid nitrogen.\nTotal cellular RNA was isolated with Trizol (GIBCO-BRL; Baltimore Md.) using a one-tenth volume of bromochloropropane (Molecular Research Corp.; Cincinnati, Ohio) to facilitate phase separation. Contaminating DNA was removed by treatment with DNase I (Promega Biotech; Milwaukee, Wis.) in the presence of 0.01 M DTT (GIBCO-BRL; Baltimore, Md.) and 1 Unit/1 RNAsin (Promega Biotech; Milwaukee, Wis.). Following phenol/chloroform extraction, RNA quality was evaluated by spectrophotometry and formaldehyde agarose gel electrophoresis, and RNA yield was estimated by fluorometry with OliGreen® (Molecular Probes; Eugene, Oreg.). Poly(A)^+ RNA was prepared from […] of total RNA by use of oligo(dT) paramagnetic beads (PerSeptive Biosynthesis; Boston, Mass.), and quantitated with fluorometry.\nFirst strand cDNA was prepared from […] of poly(A)^+ RNA with 200 pmoles oligo(dT)25V (where V=A, C or G) (PerSeptive Biosynthesis; Boston, Mass.) using 40 Units of SuperScript II reverse transcriptase (GIBCO-BRL; Baltimore, Md.). […]"}, "Histidine decarboxylase": {"tested_on": "Histidine decarboxylase", "details": "rat stomach; cited from earlier work"}, "GSTa isoform": {"tested_on": "GSTa isoform", "details": "rat livers, precancerous change; cited from earlier work"}, "acetyl CoA carboxylase": {"tested_on": "acetyl CoA carboxylase", "details": "co-incubation of hepatocytes with ligand; cited from earlier work"}, "CYP2B1 [3]": {"tested_on": "CYP2B1", "details": "in vivo mouse model; cited from earlier work"}, "[4]": {"details": "rat liver, 1.5 mg/kg/day b.i.d. 3 days, vs vehicle control"}, "[5]": {"details": "rat liver, treatment with PPARαL"}, "[6]": {"details": "rat liver, upon treatment with PPARα ligand"}}, "note": "Where two headings read alike, the source gives them in different places."}
{"smiles": "CC(C)(Oc1ccc(Cl)cc1)C(=O)O", "note": "[clofibric acid]", "values": [{"measurement": "gene encoding CYP2B1, expression", "setting": "CYP2B1 [1]", "value": "upregulated"}]}
{"smiles": "CCCCCCCN(CCc1ccc(SC(C)(C)C(=O)O)cc1)C(=O)Nc1ccc(F)cc1F", "note": "[GW9578]", "values": [{"measurement": "number of the 8973 hepatic gene fragments whose expression was altered by greater than 1.5-fold", "setting": "[2]; 1.5 mg/kg/day, b.i.d. for 3 days, male Sprague Dawley rats, liver, treated vs untreated, triplicate", "value": 218}, {"measurement": "D-aminolevulinate synthetase up-regulation", "setting": "[2]; [4]", "value": 4, "unit": "fold"}, {"measurement": "acetoacetyl-CoA thiolase upregulation", "setting": "[2]; [4]", "value": 100, "unit": "fold"}, {"measurement": "acetyl-CoA-decarboxylase modulation", "setting": "[2]; [4]", "value": "+2 fold"}, {"measurement": "apolipoprotein A-I modulation", "setting": "[2]; [4]", "value": "−2", "unit": "fold"}, {"measurement": "carnitine octanoyl transferase upregulation", "setting": "[2]; [4]", "value": 4, "unit": "fold"}, {"measurement": "catalase upregulation", "setting": "[2]; [4]", "value": 12, "unit": "fold"}, {"measurement": "down-regulation of metallothionein 1", "setting": "[2]; [4]", "value": 100, "unit": "fold"}, {"measurement": "epoxide hydrolase upregulation", "setting": "[2]; [4]", "value": 10, "unit": "fold"}, {"measurement": "novel isoform of acyl-CoA oxidase upregulation", "setting": "[2]; [4]", "value": 10, "unit": "fold"}, {"measurement": "porphobilinogen deaminase up-regulation", "setting": "[2]; [4]", "value": 60, "unit": "fold"}, {"measurement": "reduction in steroid 3-α-dehydrogenase transcript levels", "setting": "[2]; [4]", "value": 60, "unit": "fold"}, {"measurement": "steroid 3-delta-dehydrogenase modulation", "setting": "[2]; [4]", "value": "off"}, {"measurement": "very long chain acyl CoA synthetase upregulation", "setting": "[2]; [4]", "value": 4, "unit": "fold"}, {"measurement": "novel gene similar in sequence to mouse carnitine acetyltransferase, expression", "setting": "[2]; rat liver, following PPARα ligand treatment", "value": "moderately upregulated"}, {"measurement": "histidine decarboxylase gene upregulation", "setting": "[2]; rat liver, following exposure to PPARα ligand", "value": "six"}, {"measurement": "17-α-hydroxysteroid dehydrogenase IV transcription", "setting": "[2]; [5]", "value": "up-regulated"}, {"measurement": "genes encoding the other steroid catabolism enzymes (steroid-3-α-dehydrogenase, hydroxysteroid sulfotransferase, CYP p450 M1, SMP-2, UDP-glucosuronyl transferase 21)", "setting": "[2]; [5]", "value": "downregulated"}, {"measurement": "acetyl-CoA carboxylase expression", "setting": "[2]; [6]", "value": "upregulation"}, {"measurement": "decrease in expression of the gene for glutathione S transferase Ya subunit", "setting": "[2]; [6]", "value": "three"}, {"measurement": "differential regulation of ATP citrate lyase and fatty acid synthase", "setting": "[2]; [6]", "value": "not detected"}, {"measurement": "malic enzyme expression", "setting": "[2]; [6]", "value": "upregulation"}, {"measurement": "stearyl-CoA desaturase expression", "setting": "[2]; [6]", "value": "upregulation"}]}
{"smiles": "CC(C)(Oc1ccc(C2CC2(Cl)Cl)cc1)C(=O)O", "note": "(stereo not shown) [ciprofibrate]", "values": [{"measurement": "histidine decarboxylase expression", "setting": "Histidine decarboxylase", "value": "upregulated"}]}
{"smiles": "CC(C)(Oc1ccc(C2CCCc3ccccc32)cc1)C(=O)O", "note": "(stereo not shown) [nafenopin]", "values": [{"measurement": "GSTa isoform level", "setting": "GSTa isoform", "value": "decrease"}, {"measurement": "acetyl CoA carboxylase activity", "setting": "acetyl CoA carboxylase", "value": "reduced"}]}
{"smiles": "CCOC(=O)C(C)(C)Oc1ccc(Cl)cc1", "note": "[clofibrate]", "values": [{"measurement": "gene encoding CYP2B1, expression", "setting": "CYP2B1 [3]", "value": "not been observed to change"}]}
